A short description of the data set: UV-B absorption profile (UV-VIS spectra, HPLC-PDA profiling). Format: physicochemical. How it is done:
Column chromatography was carried out over ODS (Nacalai Tesque, Cosmosil 75C18-OPN). HPLC analysis was carried out on an Atlantis® (ϕ4.6×150 mm, Waters) at a flow rate of 0.5 ml min^1. Preparative HPLC was performed on a LC 10A system (Shimadzu) using an Inertsil® ODS-EP 5 m ($6.0×150 mm) at 30° C. and monitoring was accomplished by PDA (200-600 nm). HPLC-PDA-ESI-MS (HPLC/photodiode array detection/electrospray ionization mass spectrometry) was performed on a Finnigan LCQ-DECA mass spectrometer (ThermoQuest, San Jose, Calif., USA) and an Agilent HPLC 1100 series (Agilent Technologies, Palo Alto, Calif., USA). HR-ESI-MS was performed on an Exactive™ mass spectrometer (ThermoQuest, San Jose, Calif., USA). Optical rotations were determined on a JASCO P-1020. UV spectra were recorded on a JASCO V-560. NMR data were recorded on JEOL JNM ECP-600. The deuterated solvent CD3OD was used for peak 4. Coupling constants are expressed in Hz.
UV-VIS spectra in the range between 260 nm and 450 nm were recorded and analyzed via HPLC-PDA profiling for kaempferol-3-Glc-2″-Rha-7Rha (FIG. 3A), saiginol A (kaempferol-3-Glc-2″-Rha-6″-sinapoyl-7Rha, FIG. 3B) and sinapoyl-glucose (FIG. 3C). HPLC-PDA (HPLC/photodiode array detection) was performed on Dionex Ultimate 3000 system (San Jose, Calif., USA). […]

Where “and” joins values, the source holds several entries; their conditions need not be identical. Equal entries are not always repeated.

With `COc1cc(/C=C/C(=O)OC[C@H]2O[C@@H](Oc3c(-c4ccc(O)cc4)oc4cc(O[C@@H]5O[C@@H](C)[C@H](O)[C@@H](O)[C@H]5O)cc(O)c4c3=O)[C@H](O[C@@H]3O[C@@H](C)[C@H](O)[C@@H](O)[C@H]3O)[C@@H](O)[C@@H]2O)cc(OC)c1O` [Saiginol A, Kaempferol-3-O-[2-O-(α-L-rhamnopyranosyl)-6-O-(sinapoyl)-β-D-glucopyranoside]-7-O-α-L-rhamnopyranoside], under “UV-VIS spectrum, UV (MeOH)”, the “Amax (UV-VIS absorption maximum)” value is 201.5 nm and 223.0 nm and 266.5 nm and 331.5 nm.

As for `CC1OC(Oc2cc(O)c3c(=O)c(OC4OC(CO)C(O)C(O)C4OC4OC(C)C(O)C(O)C4O)c(-c4ccc(O)cc4)oc3c2)C(O)C(O)C1O` (centres unmarked) [kaempferol-3-Glc-2″-Rha-7Rha, kaempferol-3-O-Glc-2″-O-Rha-7-O-Rha, reference compound], the “UV-B absorption (efficiency / UV-B absorbent properties)” value (UV-VIS spectra 260-450 nm, HPLC-PDA profiling, FIG. 3) is on record as “much less efficient”.
